Laboratory results taken from patent US10556920B2, “Phosphorus-containing heterocycles and a method for making and using” (University of Oregon, priority 2015, dated 2020).

Experiments:
Type in all cases: physicochemical
[1] = Fluorescence excitation/emission
From the text: ^1H and ^13C NMR spectra were obtained on a Varian 300 MHz spectrometer (^1H: […], ^13C: […]), Inova 500 MHz spectrometer (^1H: 500.10 MHz, ^13C: 125.75 MHz) or Varian 600 MHz spectrometer (^1H: 599.98 MHz, ^13C: 150.87 MHz). Chemical shifts (6) are expressed in ppm using non-deuterated solvent present in the bulk deuterated solvent (CDCl3: ^1H 7.26 ppm, ^13C 77.16 ppm; (CD3)2SO: ^1H 2.5 ppm, ^13C 39.52 ppm). Solvents and reagents were used as purchased from suppliers, unless anhydrous conditions were employed, in which solvents were freshly distilled from sodium/benzophenone under N2 atmosphere (THF) or as purchased in sealed, DriSolv containers (pyridine). Triphenylphosphite was freshly distilled under vacuum before use. Mass spectra were acquired with a Waters LCT Premier ESI-MS in positive mode using acetone as a solvent. UV-Vis spectra were acquired with a Hewlett-Packard 8453 UV-Visible spectrophotometer equipped with a 250 nm cutoff filter. Fluorescence data was acquired with a Horiba Jobin-Yvon FluoroMax-4 fluorescence spectrophotometer. HPLC performed using a JAI Recycling Preparative HPLC (Model LC-9101) with a JAIGEL-1H preparative column.
The compounds gave fluorescence emissions similar to those of carbostyril. (3-Ph-carbostyril ex: 345 nm, em: 410 nm; II-3 ex: 354 nm, em: 427 nm).
The only scaffold which responded to the addition of acid was one containing a 2-pyridyl substituent, which directly corresponded to protonation of the pyridine. The N—H proton of the NH—P(OPh)=O functionality is fairly acidic, and easily removed via treatment with organic bases such as DBU. […] The fluorophore II-7 gave substitution patterns that were followed for both red-shift and quantum yield optimization of carbostyril fluorophores. Following the guidelines within the scaffold, with placement of electron donating groups in the 6- and 7-positions, and an electron-withdrawing group in the 3-position, yielded a fluorophore with an emission of 505 nm and a quantum yield of 45% in CHCl3.

[2] = Stability of phosphonimidate form toward hydrolysis/heat; conditions: 100° C. reaction conditions
From the text: Disclosed herein is a synthetic approach to assemble the 2-λ^5-phosphaquinoline in one step from easily attainable starting materials. By treatment of a 2-ethynyl aniline (for example, accessible from Sonogashira cross-coupling with commercially available 2-iodoanilines) with triphenylphosphite, the disclosed compounds were synthesized in good to modest yields (Table 1). Typically, upon isolation and purification via hot recrystallization in ambient atmosphere, the phosphaquinoline partially hydrolyzed, yielding the phosphaquinolinone form and releasing phenol. However, the phosphonimidate form (A) appeared to be stable at room temperature. This reaction was tolerant to a variety of electron-rich and electron-poor arenes, as well as alkyl functionality attached at the ethynyl.
Except for compounds with a 2-pyridyl substituent, the phosphonimidate compounds tended to hydrolyze when heated in ambient atmosphere to give the phosphonamidate. If the reaction was performed rigorously water-free, and worked up with minimal exposure to ambient atmosphere, the phosphonimidate forms (I) can be isolated for all of the derivatives. […] This and stability of the phosphonimidate toward hydrolysis at room temperature lent credence to increased stability from delocalization within the heterocycle.

Dimerization in solution = test: Dimerization in solution
From the text: This corresponded to an energy of 1.5 kcal/mol for each H-bond, which was quite high compared to cis-amides such as pyrrolidone or caprolactam, who experience dimerization constants from 1-5 M^−1 in CHCl3. […] As a result, this dimer deviated from the trends previously reported, where each attractive interaction gave −1.88 kcal/mol of energy to ΔG, and each repulsive secondary interaction gave +0.74 kcal/mol. Following the same schema, the two repulsive secondary interactions in the present dimer yielded only +0.76 kcal/mol of destabilization, about half of what was expected.

[3] = TEA added, in CHCl3 (deprotonated N-H)

With O=c1[nH]c2ccccc2cc1-c1ccccc1 [3-Ph-carbostyril, reference compound] as the compound, how does the “fluorescence emission (em)” value ([1]; solvent not stated) read?
The value was 410 nm.

And the “fluorescence excitation (ex)” value ([1]; solvent not stated)?
The value was 345 nm.

Which “stability under reaction conditions” value [2] does the source give for CCOC(=O)c1ccc(C2=Cc3ccccc3N=P2(Oc2ccccc2)Oc2ccccc2)cc1 [I-2, ethyl 4-(2,2-diphenoxy-2-λ^5-benzo[e][1,2]azaphosphinin-3-yl)benzoate] here?
Its value is “quite stable”.

With N#Cc1ccc(C2=Cc3ccccc3NP2(=O)Oc2ccccc2)cc1 (centres unmarked) [II-1, 4-(2-oxido-2-phenoxy-1H-benzo[e][1,2]azaphosphinin-3-yl)benzonitrile] as the compound, how does the “energy for each H-bond” value (Dimerization in solution; from dimerization constant in CDCl3) read?
Its value is 1.5 kcal/mol.

And the dimerization constant (Dimerization in solution; in CDCl3)?
Its dimerization constant is 133 ± 15 M⁻¹.

What about the “fluorescence emission (em)” value ([1]; CHCl3, neutral form) of the same compound?
The value was 430 nm.

And the “fluorescence excitation (ex)” value ([1]; CHCl3, neutral form)?
Its value is 345 nm.

What about the “fluorescence emission (em)” value ([1]; MeCN) of the same compound?
Its value is 450 nm.

What about the “fluorescence emission (em)” value [1, 3] of the same compound?
Its value is 542 nm.

What about the “fluorescence excitation (ex)” value [1, 3] of the same compound?
The value was 360 nm.

And the Stokes shift ([1]; upon treatment with base (TEA) in CHCl3)?
The Stokes shift was 180 nm.

With O=P1(Oc2ccccc2)Nc2ccccc2C=C1c1ccccc1 (centres unmarked) [II-3, 2-phenoxy-3-phenyl-1H-benzo[e][1,2]azaphosphinine 2-oxide] as the compound, how does the “fluorescence emission (em)” value ([1]; solvent not stated) read?
The value was 427 nm.

And the “fluorescence excitation (ex)” value ([1]; solvent not stated)?
Its value is 354 nm.

What does the source list for COc1ccc(C2=Cc3ccccc3NP2(=O)Oc2ccccc2)cc1 (centres unmarked) [II-4, 3-(4-methoxyphenyl)-2-phenoxy-1H-benzo[e][1,2]azaphosphinine 2-oxide]?
fluorescence emission (em) ([1]; CHCl3, neutral form): 411 nm; fluorescence emission (em) ([1]; MeCN): 411 nm

With N#Cc1ccc(C2=Cc3cc4c(cc3NP2(=O)Oc2ccccc2)OCO4)cc1 (centres unmarked) [II-7, 4-(2-oxido-2-phenoxy-1H-[1,3]dioxolo[4′,5′:4,5]benzo[1,2-e][1,2]azaphosphinin-3-yl)benzonitrile] as the compound, how does the “fluorescence emission (em)” value ([1]; CHCl3, neutral form) read?
The value was 505 nm.

What about the quantum yield ([1]; in CHCl3) of the same compound?
Its quantum yield is 45%.
